Laboratory results published in article PMC12062363, “Phytochemical analysis and neuroprotective potential of Achillea santolina L. fractions” (Scientific Reports, 2025).

Columns and labels:
[1] = target: T1, COX-2 enzyme (Homo sapiens, UniProt P35354); assay: biochemical; type: biochemical; details: three replicates
T1 sequence (P35354 18-604): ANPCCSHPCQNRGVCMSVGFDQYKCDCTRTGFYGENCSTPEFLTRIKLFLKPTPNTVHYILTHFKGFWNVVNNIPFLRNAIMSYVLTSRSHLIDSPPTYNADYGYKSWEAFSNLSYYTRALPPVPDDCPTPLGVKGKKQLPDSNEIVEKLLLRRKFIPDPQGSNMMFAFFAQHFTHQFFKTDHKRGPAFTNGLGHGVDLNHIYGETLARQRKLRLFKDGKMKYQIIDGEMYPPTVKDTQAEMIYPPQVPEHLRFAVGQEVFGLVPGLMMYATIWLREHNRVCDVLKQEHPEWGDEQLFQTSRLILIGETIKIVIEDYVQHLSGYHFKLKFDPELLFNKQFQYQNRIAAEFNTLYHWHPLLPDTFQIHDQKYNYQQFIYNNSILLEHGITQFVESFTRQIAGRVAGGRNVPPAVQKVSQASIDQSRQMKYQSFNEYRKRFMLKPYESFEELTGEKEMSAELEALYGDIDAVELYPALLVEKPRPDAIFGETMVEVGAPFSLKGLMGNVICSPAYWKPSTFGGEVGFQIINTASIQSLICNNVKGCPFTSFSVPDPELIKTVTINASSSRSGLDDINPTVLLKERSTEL
Protocol: All in vitro determinations were performed in triplicate and reported as mean ± standard deviation. The IC50 values were determined by transforming the concentrations to logarithmic form and applying a non-linear regression equation for inhibitors (log inhibitor) versus the normalized response-variable slope equation. In vitro studies were analyzed using one-way ANOVA and Tukey’s test, with p values under < 0.05 regarded as significant. […] All figures and statistical analyses were generated with GraphPad Prism version 8.0® for Windows (GraphPad Software, San Diego, California USA).
The inhibitory activity of the tested samples against COX-2 enzyme was determined colorimetrically ^6. Celecoxib was used as a reference drug.

[2] = target: T2, 5-LOX (Homo sapiens, UniProt P09917); assay: In vitro lipoxygenase (5-LOX) inhibitory activity; type: biochemical; details: three replicates
T2 sequence (P09917 1-674): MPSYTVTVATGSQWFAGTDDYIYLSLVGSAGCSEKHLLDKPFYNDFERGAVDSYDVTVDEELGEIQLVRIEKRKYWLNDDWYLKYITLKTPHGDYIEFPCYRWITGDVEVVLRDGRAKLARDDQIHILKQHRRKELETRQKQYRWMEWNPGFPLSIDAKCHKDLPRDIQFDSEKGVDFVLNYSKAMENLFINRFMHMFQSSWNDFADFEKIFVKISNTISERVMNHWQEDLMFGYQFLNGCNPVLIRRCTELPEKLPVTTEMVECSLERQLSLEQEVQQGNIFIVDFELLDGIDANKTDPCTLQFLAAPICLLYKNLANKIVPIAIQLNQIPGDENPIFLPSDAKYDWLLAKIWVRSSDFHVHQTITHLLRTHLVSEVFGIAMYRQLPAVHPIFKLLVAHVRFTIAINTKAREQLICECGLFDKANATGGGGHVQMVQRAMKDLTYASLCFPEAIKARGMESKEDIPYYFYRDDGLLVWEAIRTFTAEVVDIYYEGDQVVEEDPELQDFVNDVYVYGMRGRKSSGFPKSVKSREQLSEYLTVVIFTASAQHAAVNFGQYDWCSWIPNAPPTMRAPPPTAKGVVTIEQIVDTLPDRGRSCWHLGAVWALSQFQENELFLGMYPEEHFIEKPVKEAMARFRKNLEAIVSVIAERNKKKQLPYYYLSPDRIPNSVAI
Protocol: All in vitro determinations were performed in triplicate and reported as mean ± standard deviation. The IC50 values were determined by transforming the concentrations to logarithmic form and applying a non-linear regression equation for inhibitors (log inhibitor) versus the normalized response-variable slope equation. […] All figures and statistical analyses were generated with GraphPad Prism version 8.0® for Windows (GraphPad Software, San Diego, California USA).
The 5-LOX inhibitory activity was determined according to a previous method ^7. […] The IC50 of each tested sample was calculated.

[3] = system: cerebral cortex and hippocampus of MSG-treated rats; assay: Brain histopathology (H&E) in MSG-induced neurotoxicity in rats; type: in vivo, Wistar rats; details: standard 30 mg/kg orally, 14 days
Protocol: One day post the last dose, rats were anesthetized using ketamine 90 mg i.p and Blood was drawn from the Orbital sinus[22] followed by euthanizing of all rats[22]. […] The whole brains were expunged, washed with cold saline, wiped with filter paper, and split into two portions(hemispheres): one hemisphere was used for histopathological examinations following formalin fixation, however the other hemisphere was snap-frozen in liquid nitrogen and kept at − 80 °C to be used for biochemical assessment (MDA, GSH and TNF-α) and for RNA extraction. Samples were assayed in triplicates[2].
Brain specimens were preserved in 10% neutral buffered formalin followed by processing in increasing concentrations of ethanol and xylene. […]

[4] = system: Tumor necrosis factor alpha; assay: TNF-α immunohistochemistry in cerebral cortex, MSG-induced neurotoxicity in rats; type: in vivo, Wistar rats; details: standard 30 mg/kg orally, 14 days
Protocol: Sixty-three rats were randomly allocated into nine experimental groups (n = 7): Control Group; served as negative control that received distilled water (DW) at the volume of 1 ml/rat orally via an intragastric tube once a day for 14 days. MSG Group, served as control positive where rats received DW at the volume of 0.5 mL/rats orally + 2 g/kg weight MSG dissolved in normal saline at the volume of 0.5 mL/rats orally via an intragastric tube once a day for 14 days[21]. Treated groups received MSG same way as MSG group along with various treatments as following: AS 200, 400 Groups; received Achillea santolina methanolic extract at doses of 200, 400 mg/kg, respectively. MF 200,400; received methylene chloride fraction of Achillea santolina extract with the same two doses and volume suspended in DW, BF 200, 400 received butanol fraction of Achillea santolina extract with the same two doses and volume suspended in DW, and standard group (Std): received Dextromethorphan 30 mg/kg at the volume of 0.5 mL/rats orally.
Tumor necrosis factor alpha was detected in paraffin embedded tissue by immunoperoxidase technique. Briefly, tissue sections were deparaffinized and then incubated in citrate buffer PH 6 for antigen retrieval. […] Area percent of positive staining was measured by Image J software in 3 sections/ group at 200X magnification.

Question: Which “COX-2 inhibitory activity IC50” value [1] does the source give for `O=c1cc(-c2ccc(O)cc2)oc2cc(O)c([C@@H]3O[C@H](CO)[C@@H](O)[C@H](O)[C@H]3O)c(O)c12` [Isovitexin, Apigenin 6-C-β-glucopyranoside] here?
Answer: most powerful

Question: What about the “5-LOX inhibitory potential IC50” value [2] of the same compound?
Answer: highest inhibitory potential

Question: `O=c1c(O[C@@H]2O[C@H](CO)[C@@H](O)[C@H](O)[C@H]2O)c(-c2ccc(O)cc2)oc2cc(O)cc(O)c12` [Kaempferol-3-O-glucoside, Kaempferol 3-O-β-glucopyranoside] was tested. Which IC50 ([2]; read-out: 5-LOX inhibitory potential IC50) did it give?
Answer: 6.28 ± 0.16 µM

Question: For `O=c1cc(-c2ccc(O)c(O)c2)oc2cc(O)cc(O)c12` [Luteolin], which IC50 ([1]; read-out: COX-2 inhibitory activity IC50) is on record?
Answer: 12.04 ± 0.08 µM

Question: What does the source list for `COc1ccc2c(c1)[C@]13CCCC[C@@H]1[C@H](C2)N(C)CC3` [dextromethorphan, Dextromethorphan]?
Answer: neuronal degeneration and gliosis, cerebral cortex [3]: mild; neuronal degeneration and gliosis, hippocampus [3]: mild; TNF-α expression in cerebral cortex (immunohistochemistry) [4]: weak
